Data reported in patent US20100166772A1, “ANTIGEN-BINDING PROTEINS TARGETING S. AUREUS ORF0657n” (priority 2007, published 2010).
Values joined by “and” are separate entries in the source; they are usually repeats but may differ in a detail not shown here. Equal values may be shown once.

Tested on: S. aureus Becker
Assay: Combination treatment vancomycin and mAb in cannulated rats, catheter bacteria load
Assay type: in vivo
Settings: for Catheter CFU Exp#1 / Catheter CFU Exp#2: 24 hours
Procedure: Cannulated rats were given vancomycin (20 mpk) sub. cu. at 1 hour (1 H) prior to iv challenge with 2−4×10^9 CFU of S. aureus Becker. At 1 H post challenge, the rats were injected with 6 mg/rat of either the mAb CS-D6, an isotype control mAb 20C2HA, or PBS. At 24 hours post challenge, the animals were sacrificed, the jugular vein catheters harvested and evaluated for the bacteria load on the catheter. Evaluation of catheters was performed by placement in selective broth medium, and outgrowth on the Piccolo incubation system. Outgrowth was compared to standard curves of S. aureus growth under the same conditions to calculate the number of CFU on the experimental catheters. In the first set of experiments (Table 15), small numbers of animals were used to test the system. In the second set of experiments (Table 16), larger numbers of rats were used. […] This model was designed to simulate a clinical situation in which a patient is undergoing surgery or other invasive procedure, and getting an empiric or prophylactic antibiotic. In the model, the mAb was injected after bacteria exposure, simulating adjunctive mAb treatment for infection during surgery.

[1] = Table 15, individual rats, vancomycin 20 mpk sub. cu. 1 H prior, 6 mg/rat mAb 1 H post challenge
[2] = Table 16, individual rats, larger numbers of rats, vancomycin 20 mpk, 6 mg/rat mAb

Which “Catheter CFU Exp#1” value [1] does the source give for CN[C@H](CC(C)C)C(=O)N[C@H]1C(=O)N[C@@H](CC(N)=O)C(=O)N[C@H]2C(=O)N[C@H]3C(=O)N[C@H](C(=O)N[C@H](C(=O)O)c4cc(O)cc(O)c4-c4cc3ccc4O)[C@H](O)c3ccc(c(Cl)c3)Oc3cc2cc(c3O[C@@H]2O[C@H](CO)[C@@H](O)[C@H](O)[C@H]2O[C@H]2C[C@](C)(N)[C@H](O)[C@H](C)O2)Oc2ccc(cc2Cl)[C@H]1O [Vancomycin + PBS, vancomycin] here?
The value was 0 CFU and 38,725,264 CFU.

What about the “Catheter CFU Exp#2” value [1] of the same compound?
The value was 0 CFU (3×) and 217 CFU.

And the “Catheter CFU Exp#1” value [2]?
Its value is 64 CFU and 309 CFU and 973 CFU and 5,015 CFU and 5,108 CFU and 7,353,005 CFU.

And the “Catheter CFU Exp#2” value [2]?
Its value is 0 CFU and 63 CFU (2×) and 291 CFU and 6,517,926 CFU and 7,829,527 CFU.

What about the “Catheter CFU Geo mean” value (Table 16, catheters with no outgrowth assigned value of 10) of the same compound?
Its value is 3,368 CFU.

And the “Catheter CFU Geo mean” value (in vivo)?
Its value is 45 CFU.
